In patent US20260240768A1, “PHARMACEUTICAL COMPOSITION COMPRISING NFL-TBS40-63 PEPTIDE, VARIANTS OR SALTS THEREOF AND ALANINE” (GLIOCURE, priority 2022, published 2026):
Values joined by “and” are separate entries in the source; they are usually repeats but may differ in a detail not shown here. Equal values may be shown once. “Also recorded” adds a separate entry of the source. Read-outs that look alike come from different tables or passages of the source. Where a SMILES comes first, the peptide text is derived from it. The star is where a group is joined. Biotin = O=C1N[C@H]2[C@H](CS[C@H]2CCCCC(=O)*)N1

Assays:
[1] = Filtration test (0.2 μm filter); type: physicochemical; settings: for effect on the presence of fibrils in NFL-TBS40-63 formulation: amino acid added instead of alanine
Method: Several formulations (containing NFL-TBS40-63 and various buffers, solubilizing and osmolarity adjusting agents) were tested for their aptitude to pass a 0.2 μm filter. […] The ease of filtration (manual pressure required) was recorded.
For grade 1 formulations, further filtration tests were performed with higher volumes of the test formulation, and a deliberately small filter area size, e.g. a 25 mm diameter with pores of 0.2 μm with 100 ml of the test formulation.

[2] = Visual dissolution test / solubility of the peptide; type: physicochemical
[3] = Clarity test - degree of opalescence; type: physicochemical
Method: For preparations where the NFL-TBS40-63 peptide appeared to be visually dissolved (following the visual dissolution test), the clarity (opalescence) of the preparation was assessed, via visual inspection after placing the colourless glass tube close to a white light source. The degree of opalescence was a very useful predictor of a given preparation's ability to pass or block a sterilizing filter.

[4] = Dynamic Light Scattering (DLS); type: physicochemical
Method: FIG. 4A-C: DLS graphs showing the effect of the heating of the formulation containing L-alanine at different temperatures before adding NFL-TBS40-63 peptide followed by mixing for 1 h30 at A. room temperature (RT); B. 30-35° C., and C. 40-45° C. […] Low attenuator values (e.g. ≤8) indicate that there were substantially more particles in the sample.
Dynamic Light Scattering (DLS) measurements were performed on the several formulations of grade 1 and 2 using a Malvern Nano-S instrument. Although the technique is not quantitative, it provided important information on the relative size of the objects (fibrils) present in the various formulations, throughout out the process of dissolution.
The attenuator value also gives a measure of the quantity of particles present: the higher the attenuator value, the less particles present.

[5] = Transmission Electron Microscopy (TEM) of fibrils; type: physicochemical
Method: Transmission Electron Microscopy imaging of various formulations was performed using a Jeol JEM-1400 instrument. Sample preparation was as follows: one drop of the liquid to be examined was deposited onto a TEM gird and allowed to settle for ~1 minute. Excess liquid was then absorbed with blotting paper, and one drop of a 2% solution of uranyl acetate was deposited on the grid. After ~2 minutes the excess solution was absorbed with blotting paper, and the grid was rinsed twice, using with a drop of water each time. The grid was then dried, prior to examination in the TEM. This technique allowed visualization of the fibrils of NFL-TBS40-63 peptide in the various formulations and in water.

[6] = Scanning Electron Microscopy (SEM) of dry powder; type: physicochemical; settings: Lot AW18189D and Lot HF44004B
Method: Scanning Electron Microscopy of NFL-TBS40-63 peptide dry powder was performed using an Jeol 6301F instrument. In brief, NFL-TBS40-63 peptide was lightly sprinkled onto double sided tape fixed to a SEM stub. Excess powder was shaken/tapped off, so as to leave a very thin layer of powder on the stub, which was then sputter coated with an ~10 nm layer of platinum, prior to observation. This technique allows visualization of the fibrils in the dry NFL-TBS40-63 peptide powder.

[7] = test system: U-87 MG human GBM cells; test: Immunocytochemistry of tubulin; type: cell-based; settings: 100 μM, 48 hours
Method: (§1) To visualize the treatment internalization, 20,000 and 35,000 cells per well for b.End3 murine endothelial cells and U-87 MG human GBM cells, respectively, were seeded in 24-well plates containing one coverslip previously coated with poly (d) lysine 0.1 mg/ml per well and washed three times with 1×DPBS (Sigma-Aldrich; Saint-Louis, USA) and incubated for 24 hours at 37° C. and 5% CO2. Then, the cells were incubated with 100 μM of GC01-G5% (NFL-TBS40-63 peptide (GC01) peptide partially solubilized with 5% glucose) or 100 μM of GC01.1 (NFL-TBS40-63 peptide (GC01) fully solubilized in the formulation of the invention F28C1), or with 1 μg/mL of colchicine for 48 hours at 37° C. At the end of the incubation time, cells were washed three times with 1×DPBS and fixed with 4% paraformaldehyde (15714-Delta microscopies; Mauressac, France) for 10 min at room temperature. Then, treated cells were permeabilized with 0.2% triton X-100 (T9284—Sigma-Aldrich; Saint-Louis, USA) for 10 min, and blocked with 5% bovine serum albumin (A7030—Sigma-Aldrich; Saint-Louis, USA) for 45 min at room temperature. Cells were co-incubated with a mouse anti-a tubulin (ab7750-Abcam; Paris, France) and a rabbit anti-βIII tubulin antibodies at 1:250 (T2200—Sigma-Aldrich; Saint-Louis, USA) overnight at 4° C. […]

[8] = test system: b.End3 murine endothelial cells; test: Immunocytochemistry of tubulin; type: cell-based; settings: 100 μM, 48 hours
Method: as §1

[9] = test system: U-87 MG human GBM cells; test: MTS viability assay (mitochondrial activity); type: cell-based; settings: 72 hours, peptide in Clinic vehicle F28C1 compared with Glucose 5%
Method: (§2) Cells were seeded in 96-well plates at 1,000 per well for b.End3 murine endothelial cells and F98 rat GBM cells, and 5,000 cells and U-87 MG human GBM cells, and incubated for 24 hours at 37° C. and 5% CO2. Then, the culture media was removed and cells were treated for 72 hours at 37° C. and 5% CO2 with increasing concentrations (25, 50, 100 and 200 μM) of GC01-G5% (NFL-TBS40-63 peptide (GC01) partially solubilized with 5% glucose) or GC01.1 (NFL-TBS40-63 peptide (GC01) fully solubilized in the formulation of the invention F28C1), or with 1 μg/mL of colchicine, or the 5% glucose solution and the Clinic vehicle, diluted in fresh media. Cell viability was measured using the MTS viability assay (ab197010-Abcam; Paris, France). After rinsing the cells with 1×DPBS (Dulbecco's Phosphate Buffered Saline-Gibco; Dardilly, France), 20 μL of MTS reagent was added to each well for 2 hours. The number of living cells is directly proportional to the absorbance measured by the amount of light absorbance at 490 nm in a SpectraMax M2 multi-scanning spectrophotometer (Molecular Devices; San Jose, California, USA).

[10] = test system: b.End3 murine endothelial cells; test: MTS viability assay (mitochondrial activity); type: cell-based; settings: 72 hours, peptide in Clinic vehicle F28C1 compared with Glucose 5%
Method: as §2

[11] = test system: U-87 MG cells; test: Calcein/PI flow cytometry after passage through the endothelial monolayer; type: cell-based, human; settings: Transwell conditions + U-87 MG cells, 24 h treatment + 48 hours
Method: After 24 hours of treatment, the endothelial cell monolayer was removed, and the U-87 MG cells were incubated at 37° C. for an additional 48 hours. At this time, U-87 MG cells were collected as previously described in section 1.4. To evaluate cell viability were stained with 1 μM of Calcein green (Thermo Fisher Scientific; Massachusetts, USA) for 30 min at room temperature in the dark. Then re-suspended in Propidium Iodide and analyzed by flow cytometry. 10,000 cells were measured for each experiment.

[12] = test system: U-87 MG cells implanted in the brains of BALB/c Nude mice; test: In vivo U-87 MG brain tumor in nude mice, tolerance and MALDI-TOF imaging; settings: intravenous injection in the formulation of the invention, 1 hour after the final injection
Method: Seven-week-old female Balb/c nude mice (Janvier, France) were housed at the university animal facility (Service Commun d'Animalerie Hospitalo-Universitaire—Université d'Angers, France). Animals had free access to water and food throughout the experiment and their behavior and body weight were constantly monitored. All procedures involving animals, were conducted in accordance with protocols approved by ethical committee of the University of Angers and the regional ethics committee on animal experimentations.
Mice were anesthetized by intraperitoneal injection of a mixture of ketamine 10% (80 mg/kg) and xylazine 2% (10 mg/kg). […] The injection coordinates were 2.1 mm lateral, 0.5 mm posterior from the bregma and 2.5 mm deep from the outer border of the cranium. […] Animals were sacrificed 1 hour after the last injection, and brains were removed and frozen in nitrogen vapors.
The MALDI-TOF MS analysis was performed on a Bruker BIFLEX III mass spectrometer (Bruker Daltonics; Germany) equipped with a nitrogen laser (337 nm wavelength, 3 ns laser pulse duration) with reflection and in the positive ion mode. The MS data were acquired over a mass range of m/z 2714 Da with pixels of 100 μm diameter but the capturing area is of 40 μm per pixel. Data have been normalized by Root Mean Square and the image has been smoothed by reducing background noise. […]

[13] = test system: neuroblastoma and glioblastoma cell lines; settings: WO 2011/073207 and Bocquet et al. (2009); cited from earlier work

With `CC(C)[C@H](N)C(=O)O` [L-valine] the “effect on the presence of fibrils in NFL-TBS40-63 formulation” value (“effect on the presence of fibrils” below) [1] was “did not have any positive effect”.

In the case of `CC(C)C[C@H](NC(=O)[C@H](CO)NC(=O)[C@H](CO)NC(=O)[C@H](CO)NC(=O)[C@@H](NC(=O)[C@@H]1CCCN1C(=O)[C@H](C)NC(=O)[C@H](CO)NC(=O)[C@H](Cc1ccc(O)cc1)NC(=O)[C@H](CO)NC(=O)[C@H](CO)NC(=O)[C@H](Cc1ccc(O)cc1)NC(=O)CCCC[C@@H]1SC[C@@H]2NC(=O)N[C@@H]21)C(C)C)C(=O)N[C@@H](CO)C(=O)N[C@H](C(=O)N[C@@H](CCCNC(=N)N)C(=O)N[C@@H](CCCNC(=N)N)C(=O)N[C@@H](CO)C(=O)N[C@@H](Cc1ccc(O)cc1)C(=O)N[C@@H](CO)C(=O)N[C@@H](CO)C(=O)N[C@@H](CO)C(=O)N[C@@H](CO)C(=O)NCC(=O)N[C@@H](CO)C(N)=O)C(C)C` [NFL-TBS40-63 peptide] (Biotin-YSSYSAPVSSSLSVRRSYSSSSGS-NH2; N-terminus and C-terminus assumed), the “dissolution of the peptide” value ([2]; 3 mg/ml in G5% (5% glucose in water for injection), even after heating 1.5 h at 40 to 45° C.) is reported as “less well dissolved”, the solubility at 2 min ([2]; 50 mM glutamine and 50 mM arginine, read-out: solubility) is reported as under 800 µg/mL and the precipitation ([2]; in the presence of sodium or potassium ions) is reported as “tends to irreversibly precipitate”. For the same compound, the solubility at 2 min ([2]; in water, read-out: intrinsic aqueous solubility) was under 2500 µg/mL, the “solubility in commonly used parenteral buffer systems” value ([2]; nearly all commonly used parenteral buffer systems) was “insoluble” and the “opalescence of the solution” value ([3]; F28C1 with 25 mM L-alanine, 1.5 mg/mL peptide) was “slightly opalescent”. The “opalescence of the solution” value ([3]; F28C1 with 50 mM L-alanine, 1.5 mg/ml peptide) was “very slightly opalescent”, the “opalescence of the solution” value ([3]; F28C1 with 112 mM L-alanine, 1.5 mg/ml peptide) was “slightly opalescent” and the “opalescence of the solution” value ([3]; F28C1 with 225 mM L-alanine, 1.5 mg/ml peptide) was “slightly opalescent”. The “opalescence of the solution” value ([3]; F28C1 with 670 mM L-alanine, 0.5 mg/mL peptide) was “slightly opalescent”, the “passage of 0.2 μm sterilizing filter” value ([1]; 1 mg/ml in water) was “very quickly block” and the “behaviour of pre-filter and sterilizing filters” value ([1]; 3 mg/ml in G5% (5% glucose in water for injection)) was “tended to clog up quite quickly”. The filter grade ([1]; F28C1 with 25 mM L-alanine, 1.5 mg/mL peptide, 1 mL, 13 mm 0.2 μm filter) was 2, the filter grade ([1]; F28C1 with 50 mM L-alanine, 1.5 mg/ml peptide, 5 mL, 13 mm 0.2 μm filter) was 1 to 2 and the filter grade ([1]; F28C1 with 112 mM L-alanine, 1.5 mg/ml peptide, 1 mL, 13 mm 0.2 μm filter) was 2. The filter grade ([1]; F28C1 with 225 mM L-alanine, 1.5 mg/ml peptide, 1 mL, 13 mm 0.2 μm filter) was 2 to 3 and 3, the filter grade ([1]; F28C1 with 670 mM L-alanine, 0.5 mg/mL peptide, 13 mm 0.2 μm filter) was 3 and the “sterilizing filtration through 0.2 μm” value ([1]; micronized powder in F28C1, after 0.45 μm pre-filtration) was “successful”. The filter grade ([1]; with no alanine) was 3, the “DLS single peak, particle size” value ([4]; micronized powder in F28C1, 1.5 hours mixing at ambient temperature (20° C.), prior to pre-filtration) was “around 300 nm” and the DLS attenuator value ([4]; solution F28C heated to 40-45° C. before adding the peptide, mixing 1h30) was 10. For the same compound, the “number and size of fibrils by TEM” value ([5]; composition containing 50 mM of L-alanine and 1 mg/mL peptide) was “significantly reduced; also recorded: virtually no fibrils were visible”, the “fibrillar structures by TEM” value ([5]; in water, 1 mg/mL and 0.27 mg/ml) was “fibrillar structure; also recorded: fibril structure” and the “length of sub-visible fibrillar structures” value ([5]; self-association) was at most 2 μm. For the same compound, the “structures in dry powder by SEM” value [6] was “fibril-like structures”, the “effect on tubulin (immunostaining)” value [7] was “alteration of tubulin” and the “effect on tubulin (immunostaining)” value [8] was “alteration of tubulin”. For the same compound, the “cytotoxicity profile (cell viability, MTS)” value [9] was “retains its properties”, the “cytotoxicity profile (cell viability, MTS)” value [10] was “retains its properties” and the “percentage of dead cells” value ([11]; listed as Biot-NFL) was 16.6±5.4%. The “percentage of dead cells” value ([11]; listed as GC01) was 30.1±7.9%, the “peptide in the tumor by MALDI-TOF imaging” value [12] was “accumulation” and the “inhibition of proliferation in vitro” value [13] was “able to inhibit the proliferation”.

For `NC(=O)CC[C@H](N)C(=O)O` [L-glutamine], the “effect on the presence of fibrils” value [1] was “did not have any positive effect”.

In the case of `CC[C@H](C)[C@H](N)C(=O)O` [L-isoleucine], the “effect on the presence of fibrils” value [1] is reported as “did not have any positive effect”.

In the case of `CC(C)C[C@H](N)C(=O)O` [L-leucine], the “effect on the presence of fibrils” value [1] is reported as “did not have any positive effect”.

With `CSCC[C@H](N)C(=O)O` [L-methionine] the “effect on the presence of fibrils” value [1] was “did not have any positive effect”.
